Like-named read-outs stand apart in the source and are kept apart here. Where no end group is shown, it is not given here. [ ]: non-standard residue; d: D form. NMeL = CN[C@@H](CC(C)C)C(=O)O
What was measured:
neutrophils = assay: In vivo neutrophil chemotaxis: histopathology and myeloperoxidase assay; set-up: species or system CD1 mice; details: for histopathologic analysis of skin tissue: 250 μg s.c., no bacteria
Procedure: Neutrophil chemotaxis and myeloperoxidase assay. Neutrophil recruitment at the site of injection by EP67 or sEP67 was examined using an in vivo chemotaxis assay as described previously (van Sorge N M, et al., PloS One 2008; 3:e2964). Briefly, 250 μg EP67 or sEP67 were injected subcutaneously into the right flank of CD1 mice. The injection was repeated after 24 h. Mice were euthanized 4 h after the second injection and the site of injection excised for histopathoglogic analysis or determination of myeloperoxidase (MPO) activity as described previously (van Sorge N M, et al., supra). The assay was carried out two times and the samples analyzed in duplicate.
Neutrophil influx is essential for the protective action of EP67. […] Neutrophil recruitment to the site of EP67 injection was further analyzed using an in vivo neutrophil recruitment assay as described previously (van Sorge N M, et al., supra; and Banerjee A, et al., Cell Microbiol; 12:1576-1588). Neutrophil migration was assessed in skin homogenates following injection of EP67 or sEP67 by determining the level of neutrophil enzyme myeloperoxidase (MPO), which serves as an effective indication of neutrophil infiltration (Banerjee A, et al., supra; and Bradley P P, et al., J Invest Dermatol 1982; 78:206-209). This method compares well with other in vivo assays of neutrophil chemotaxis (van Sorge N M, et al., supra).

MRSA = type: in vivo, C57B1/6 mice; details: for lesion size in CD88 −/− background vs EP67-treated CD88 +/+ background: mouse, in vivo
E. coli strain DH5α = assay: E. coli growth (OD600) with peptide; type: cell-based; details: for effect on log phase growth (OD600): added at OD600 0.2, 500 μg/m, LB or TSB
Procedure: E. coli strain DH5α was grown overnight in mls of Lennox Broth (LB). This culture was diluted to an optical density at […] (OD600) of 0.06. The diluted E.coli was dispensed in 1.5 ml aliquots into separate tubes and 1.5 ml of EP67 (YSFKDMP(MeL)aR (SEQ ID NO: 4)), EP54 (YSFKPMPLaR (SEQ ID NO: 3)), scrambled-EP67 (s-EP67) or scrambled-EP54 in LB was added to obtain a final concentration of 500 μg/ml with the E. coli at an OD600 of 0.03. A culture in LB was also prepared. The cultures were incubated at 37° C. with shaking and the OD600 readings recorded hourly. In order to determine whether the growth media altered the effectiveness of EP67, LB was replaced with an alternative growth media, Tryptic Soy Broth (TSB).
To test the efficacy of EP67 on bacteria growing in log phase, overnight cultures of DH5α were grown in either LB or TSB. The cultures were diluted to an OD600 of 0.03 and incubated at 37° C. with shaking until they reached an OD600 of 0.2 at which time either EP67 or s-EP67, in the appropriate media, were added to a final concentration of 500 μg/m. DH5α control cultures (absence of additives) were also prepared. The tubes were further shaken at 37° C. and OD600 readings were taken hourly.

[1] = test system: bronchoalveolar lavage (BAL) cells; assay: BAL cell FACS analysis after EP67 insufflation; type: in vivo, mice
Procedure: In short, EP67 (3 mg/kg) was delivered directly to the lungs of mice through insufflation (IN). […] Lungs were lavaged with PBS to isolate the bronchoalveolar lavage (BAL) cells for staining and FACS analysis.

influenza A/PR/8 = type: in vivo, mice; details: uninfected animals treated with EP67, one day later
influenza A/A/PR/8 = assay: Influenza-induced weight loss after one EP67 treatment; type: in vivo, mice
influenza = assay: ELISA for anti-influenza antibodies in serum; type: in vivo, mice; details: each EP67 treatment group
[2] = test system: bronchoalveolar lavage (BAL) cells; assay: BAL cell response of aged mice to EP67 insufflation; type: in vivo
[3] = test system: S. aureus (Newman strain); assay: S. aureus in vitro EP67 killing curves; type: cell-based; details: dilution series, LB; higher concentrations
Procedure: 150 μl of LB growth medium plus 50 μl of EP67 or s-EP67 were added to individual culture wells resulting in a dilution series of 6 wells per EP67 or s-EP67. A “no EP67” well (control) was included at the end of each series. S. aureus (Newman strain) was allowed to grow to an OD600 of 0.4 and each well of the dilution series was inoculated with 5μl of the culture. Two wells with no bacterial inoculums were included to serve as controls. Plates were incubated at 37° C. with agitation and the OD600 of each well was measured hourly using a plate reader.

GBS = assay: Group B Streptococcus (GBS) meningitis model; type: in vivo, CD1 mice; details: 250 ug i.p. at day −1, 0, 1 and 2; brain and blood cfu 96 hours post-injection
Procedure: 8-week old female CD1 mice were treated with 250 ug of EP67 or s-EP67 at day −1, 0, 1 and 2 via i.p. injection. GBS was injected via i.p. at 1×10^9 cfu/mouse. Brains and blood were harvested from each mouse 96 hours post-injection. The tissue was homogenized, diluted and plated to determine the cfu/g bacteria.

[4] = test system: S. aureus (USA300 LAC strain) biofilm; assay: S. aureus catheter biofilm model; details: Day 3, relative to sEP67 and PBS vehicle
Procedure: A S. aureus (USA300 LAC strain) biofilm was established on a hollow catheter (1 cm in length) inserted subcutaneously into C57BL/6 mice by introducing 1000 CFUs of S. aureus into the catheter lumen. At the time of infection, one dose of EP67 (200 μg/ml dissolved in PBS) was introduced. At both 24 and 48 h following infection, a series of four injections of EP67 were made; two into each open end of the catheter (20 μl each) and two along the top and bottom at points perpendicular to the middle of the catheter (50 μl each). Samples of the biofilm and surrounding tissue were obtained at Day 3 and assessed for the presence of viable bacteria by standard culture methods.

[5] = EP67 3 mg/kg insufflation, one day later

(MeL)RMYKPaFDS ([NMeL]RMYKP[dA]FDS) [sEP67, reference compound]
histopathologic analysis of skin tissue (neutrophils): normal pathology | lesion size in CD88 −/− background vs EP67-treated CD88 +/+ background (MRSA): significantly larger | effect on log phase growth (OD600) (E. coli strain DH5α): little or no effect on growth

YSFKDMP(MeL)aR (YSFKDMP[NMeL][dA]R; listed as Homo sapiens) [EP67]
CD11b+CD11c− cells (GR-1+ neutrophils) in alveolar space [1, 5]: a large population of CD11b^+CD11c^− cells appeared in the alveolar space | exudate macrophages (exMac) in BAL cells [1, 5]: appearance of cells bearing the CD11b^+CD11c^+ phenotype of exudate macrophages (exMac) | dose dependence of EP67-induced changes in BAL populations ([1]; mouse, in vivo): strict dose-response | time course of the EP67 response in BAL cells: neutrophils ([1]; seven days post EP67 administration): the neutrophils were largely lost | influx of innate effectors (exMacs, neutrophils) in BAL (influenza A/PR/8): displayed this influx of innate effectors | protection from influenza-induced morbidity (influenza A/A/PR/8; treated on day 2 after infection): not associated with any protection | protection from influenza-induced morbidity (influenza A/A/PR/8; treated on day 3 after infection): not associated with any protection | influenza-induced weight loss (influenza A/A/PR/8; treated one day after infection): significant protection from influenza-induced weight loss | influenza-induced weight loss (influenza A/A/PR/8; treated the day before infection, vs non-treated animals): lost significantly less weight | influenza-induced weight loss (influenza A/A/PR/8; treated the day of infection, vs non-treated animals): lost significantly less weight | anti-influenza Abs in serum (influenza): high concentration of anti-influenza Abs | exMacs and neutrophils in alveolar space [2]: a large population of exMAcs and neutrophils into the alveolar space | myeloperoxidase (MPO) levels in skin homogenates (accumulating neutrophils) (neutrophils; 250 μg s.c. twice, 4 h after second injection, compared to sEP67): significantly higher | histopathologic analysis of skin tissue (neutrophils): massive influx of inflammatory cells, including neutrophils | lesion size (MRSA; CD88 −/− animals, EP67 vs sEP67): no difference in lesion size | lesion size in CD88 −/− background vs EP67-treated CD88 +/+ background (MRSA): significantly larger | lesion size (MRSA; wild-type CD88 +/+ animals, EP67 compared to sEP67): significantly smaller lesions | effect on bacterial growth (OD600) (E. coli strain DH5α; 500 μg/ml, start OD600 0.03, LB or TSB): direct bacteriostatic/bacteriocidal effects | effect on log phase growth (OD600) (E. coli strain DH5α): significantly reduce and/or stop log phase growth | effect on bacterial growth (OD600) [3]: dose dependent inhibitory effect | protection against GBS infection in the central nervous system (GBS): protects against GBS infections in the central nervous system | bacterial burdens in surrounding tissue [4]: significant decrease in bacterial burdens | bacterial burdens within the biofilm [4]: significant decrease in bacterial burdens

Reference: patent US10363282B2, “Analogs of C5a and methods of using same” (priority 2010, dated 2019)
